According to ChEMBL document CHEMBL4311999, “3-Hydrazinoisatin-based benzenesulfonamides as novel carbonic anhydrase inhibitors endowed with anticancer activity: Synthesis, in vitro biological evaluation and in silico insights” (Eur J Med Chem, 2019):

Legend:
Carbonic anhydrase 9 [1] = biological target: T1, Carbonic anhydrase 9 (Homo sapiens, UniProt Q16790); conditions: at 1 µM
Description: Inhibition of recombinant human carbonic anhydrase 9 at 1 uM preincubated for 15 mins by phenol red dye based stopped flow CO2 hydration assay (Rvb = 0%)

Carbonic anhydrase 9 [2] = biological target: T1, Carbonic anhydrase 9; conditions: at 0.1 µM
Description: Inhibition of recombinant human carbonic anhydrase 9 at 0.1 uM preincubated for 15 mins by phenol red dye based stopped flow CO2 hydration assay (Rvb = 0%)

Carbonic anhydrase 9 [3] = biological target: T1, Carbonic anhydrase 9; assay: Inhibition of recombinant human carbonic anhydrase 9 preincubated for 15 mins by phenol red dye based stopped flow CO2 hydration assay
Carbonic anhydrase 9 [4] = biological target: T1, Carbonic anhydrase 9; conditions: at 0.01 µM
Description: Inhibition of recombinant human carbonic anhydrase 9 at 0.01 uM preincubated for 15 mins by phenol red dye based stopped flow CO2 hydration assay (Rvb = 0%)

Carbonic anhydrase 9 [5] = biological target: T1, Carbonic anhydrase 9; conditions: at 1 nM
SR = assay: Growth inhibition of human SR cells at 10 uM incubated for 48 hrs by sulforhodamine B assay relative to control; type: functional; conditions: read-out: GI
786-0 = assay: Growth inhibition of human 786-0 cells at 10 uM incubated for 48 hrs by sulforhodamine B assay relative to control; type: functional; conditions: 786-0, 48 h, read-out: GI
MDA-MB-468 = assay: Growth inhibition of human MDA-MB-468 cells at 10 uM incubated for 48 hrs by sulforhodamine B assay relative to control; type: functional; conditions: MDA-MB-468, 48 h, read-out: GI
UACC-62 = assay: Growth inhibition of human UACC62 cells at 10 uM incubated for 48 hrs by sulforhodamine B assay relative to control; type: functional; conditions: UACC-62, 48 h, read-out: GI
MCF7 = assay: Growth inhibition of human MCF7 cells at 10 uM incubated for 48 hrs by sulforhodamine B assay relative to control; type: functional; conditions: MCF7, 48 h, read-out: GI
T47D = assay: Growth inhibition of human T47D cells at 10 uM incubated for 48 hrs by sulforhodamine B assay relative to control; type: functional; conditions: read-out: GI
ACHN = assay: Growth inhibition of human ACHN cells at 10 uM incubated for 48 hrs by sulforhodamine B assay relative to control; type: functional; conditions: read-out: GI
OVCAR-4 = assay: Growth inhibition of human OVCAR4 cells at 10 uM incubated for 48 hrs by sulforhodamine B assay relative to control; type: functional; conditions: OVCAR-4, 48 h, read-out: GI
MDA-MB-231 = assay: Growth inhibition of human MDA-MB-231 cells at 10 uM incubated for 48 hrs by sulforhodamine B assay relative to control; type: functional; conditions: MDA-MB-231, 48 h, read-out: GI
A549 = assay: Growth inhibition of human A549/ATCC cells at 10 uM incubated for 48 hrs by sulforhodamine B assay relative to control; type: functional; conditions: A549, 48 h, read-out: GI
RPMI-8226 = assay: Growth inhibition of human RPMI8226 cells at 10 uM incubated for 48 hrs by sulforhodamine B assay relative to control; type: functional; conditions: RPMI-8226, 48 h, read-out: GI
NCI-H522 = assay: Growth inhibition of human NCI-H522 cells at 10 uM incubated for 48 hrs by sulforhodamine B assay relative to control; type: functional; conditions: NCI-H522, 48 h, read-out: GI
RXF 393 = assay: Growth inhibition of human RXF393 cells at 10 uM incubated for 48 hrs by sulforhodamine B assay relative to control; type: functional; conditions: RXF 393, 48 h, read-out: GI
OVCAR-8 = assay: Growth inhibition of human OVCAR8 cells at 10 uM incubated for 48 hrs by sulforhodamine B assay relative to control; type: functional; conditions: OVCAR-8, 48 h, read-out: GI
NCI/ADR-RES = assay: Growth inhibition of human NCI/ADR-RES cells at 10 uM incubated for 48 hrs by sulforhodamine B assay relative to control; type: functional; conditions: read-out: GI
SK-MEL-5 = assay: Growth inhibition of human SK-MEL-5 cells at 10 uM incubated for 48 hrs by sulforhodamine B assay relative to control; type: functional; conditions: SK-MEL-5, 48 h, read-out: GI
MOLT-4 = assay: Growth inhibition of human MOLT4 cells at 10 uM incubated for 48 hrs by sulforhodamine B assay relative to control; type: functional; conditions: MOLT-4, 48 h, read-out: GI
Carbonic anhydrase 1 = Carbonic anhydrase 1 (Homo sapiens, UniProt P00915); assay: Inhibition of recombinant human carbonic anhydrase 1 preincubated for 15 mins by phenol red dye based stopped flow CO2 hydration assay
SF-268 = assay: Growth inhibition of human SF268 cells at 10 uM incubated for 48 hrs by sulforhodamine B assay relative to control; type: functional; conditions: SF-268, 48 h, read-out: GI
OVCAR-5 = assay: Growth inhibition of human OVCAR5 cells at 10 uM incubated for 48 hrs by sulforhodamine B assay relative to control; type: functional; conditions: OVCAR-5, 48 h, read-out: GI
HCT-116 = assay: Growth inhibition of human HCT116 cells at 10 uM incubated for 48 hrs by sulforhodamine B assay relative to control; type: functional; conditions: HCT-116, 48 h, read-out: GI
UO-31 = assay: Growth inhibition of human UO31 cells at 10 uM incubated for 48 hrs by sulforhodamine B assay relative to control; type: functional; conditions: UO-31, 48 h, read-out: GI
NCI-H226 = assay: Growth inhibition of human NCI-H226 cells at 10 uM incubated for 48 hrs by sulforhodamine B assay relative to control; type: functional; conditions: NCI-H226, 48 h, read-out: GI
SNB-19 = assay: Growth inhibition of human SNB19 cells at 10 uM incubated for 48 hrs by sulforhodamine B assay relative to control; type: functional; conditions: SNB-19, 48 h, read-out: GI
Hs-578T = assay: Growth inhibition of human Hs 578T cells at 10 uM incubated for 48 hrs by sulforhodamine B assay relative to control; type: functional; conditions: read-out: GI
CAKI-1 = assay: Growth inhibition of human Caki1 cells at 10 uM incubated for 48 hrs by sulforhodamine B assay relative to control; type: functional; conditions: CAKI-1, 48 h, read-out: GI
SNB-75 = assay: Growth inhibition of human SNB75 cells at 10 uM incubated for 48 hrs by sulforhodamine B assay relative to control; type: functional; conditions: SNB-75, 48 h, read-out: GI
SF-539 = assay: Growth inhibition of human SF539 cells at 10 uM incubated for 48 hrs by sulforhodamine B assay relative to control; type: functional; conditions: SF-539, 48 h, read-out: GI
CCRF-CEM = assay: Growth inhibition of human CCRF-CEM cells at 10 uM incubated for 48 hrs by sulforhodamine B assay relative to control; type: functional; conditions: read-out: GI
NCI-H460 = assay: Growth inhibition of human NCI-H460 cells at 10 uM incubated for 48 hrs by sulforhodamine B assay relative to control; type: functional; conditions: NCI-H460, 48 h, read-out: GI
PC-3 = assay: Growth inhibition of human PC3 cells at 10 uM incubated for 48 hrs by sulforhodamine B assay relative to control; type: functional; conditions: PC-3, 48 h, read-out: GI
HCT-15 = assay: Growth inhibition of human HCT15 cells at 10 uM incubated for 48 hrs by sulforhodamine B assay relative to control; type: functional; conditions: HCT-15, 48 h, read-out: GI
TK-10 = assay: Growth inhibition of human TK10 cells at 10 uM incubated for 48 hrs by sulforhodamine B assay relative to control; type: functional; conditions: TK-10, 48 h, read-out: GI
BT-549 = assay: Growth inhibition of human BT549 cells at 10 uM incubated for 48 hrs by sulforhodamine B assay relative to control; type: functional; conditions: BT-549, 48 h, read-out: GI
K562 = assay: Growth inhibition of human K562 cells at 10 uM incubated for 48 hrs by sulforhodamine B assay relative to control; type: functional; conditions: K562, 48 h, read-out: GI
EKVX = assay: Growth inhibition of human EKVX cells at 10 uM incubated for 48 hrs by sulforhodamine B assay relative to control; type: functional; conditions: read-out: GI
HOP-62 = assay: Growth inhibition of human HOP62 cells at 10 uM incubated for 48 hrs by sulforhodamine B assay relative to control; type: functional; conditions: HOP-62, 48 h, read-out: GI
Carbonic anhydrase 12 = Carbonic anhydrase 12 (Homo sapiens, UniProt O43570); assay: Inhibition of recombinant human carbonic anhydrase 12 preincubated for 15 mins by phenol red dye based stopped flow CO2 hydration assay
Carbonic anhydrase 2 = Carbonic anhydrase 2 (Homo sapiens, UniProt P00918); assay: Inhibition of recombinant human carbonic anhydrase 2 preincubated for 15 mins by phenol red dye based stopped flow CO2 hydration assay

Chain of Carbonic anhydrase 1 (P00915 whole entry): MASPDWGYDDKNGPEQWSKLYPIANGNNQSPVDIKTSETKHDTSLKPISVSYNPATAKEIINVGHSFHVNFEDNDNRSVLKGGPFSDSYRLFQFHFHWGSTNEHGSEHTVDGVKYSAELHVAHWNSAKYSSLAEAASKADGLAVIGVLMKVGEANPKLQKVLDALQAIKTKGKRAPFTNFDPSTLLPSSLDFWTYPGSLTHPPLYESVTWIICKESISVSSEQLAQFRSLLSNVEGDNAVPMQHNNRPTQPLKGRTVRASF
Chain of Carbonic anhydrase 12 (O43570 whole entry): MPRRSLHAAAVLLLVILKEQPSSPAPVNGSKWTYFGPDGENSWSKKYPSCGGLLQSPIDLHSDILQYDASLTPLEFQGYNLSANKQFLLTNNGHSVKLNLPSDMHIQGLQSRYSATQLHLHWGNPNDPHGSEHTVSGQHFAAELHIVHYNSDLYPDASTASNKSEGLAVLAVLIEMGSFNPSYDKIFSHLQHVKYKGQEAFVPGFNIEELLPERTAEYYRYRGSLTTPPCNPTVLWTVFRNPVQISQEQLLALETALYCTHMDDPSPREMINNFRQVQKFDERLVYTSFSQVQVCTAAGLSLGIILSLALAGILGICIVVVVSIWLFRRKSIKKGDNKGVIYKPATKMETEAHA

## CN1C(=O)/C(=N\Nc2ccc(S(N)(=O)=O)cc2)c2ccccc21
Carbonic anhydrase 9 [1]
  inhibition: 81%
Carbonic anhydrase 9 [2]
  inhibition: 75%
Carbonic anhydrase 9 [3]
  Ki: 9.4 nM
Carbonic anhydrase 9 [4]
  inhibition: 51%
Carbonic anhydrase 9 [5]
  inhibition: 17%

## NS(=O)(=O)c1ccc(N/N=C2\C(=O)N(Cc3ccccc3)c3ccc(Br)cc32)cc1
SR
  inhibition of growth at 10 µM: 20%
786-0
  inhibition of growth at 10 µM: 19%
MDA-MB-468
  inhibition of growth at 10 µM: 13%
UACC-62
  inhibition of growth at 10 µM: 30%
MCF7
  inhibition of growth at 10 µM: 23%
T47D
  inhibition of growth at 10 µM: 19%
ACHN
  inhibition of growth at 10 µM: 22%
OVCAR-4
  inhibition of growth at 10 µM: 19%
MDA-MB-231
  inhibition of growth at 10 µM: 23%
A549
  inhibition of growth at 10 µM: 19%
RPMI-8226
  inhibition of growth at 10 µM: 10%
NCI-H522
  inhibition of growth at 10 µM: 29%
RXF 393
  inhibition of growth at 10 µM: 38%
OVCAR-8
  inhibition of growth at 10 µM: 26%
NCI/ADR-RES
  inhibition of growth at 10 µM: 13%
SK-MEL-5
  inhibition of growth at 10 µM: 17%
MOLT-4
  inhibition of growth at 10 µM: 21%
Carbonic anhydrase 1
  Ki: > 10000 nM
Carbonic anhydrase 9 [3]
  Ki: 60.5 nM
SF-268
  inhibition of growth at 10 µM: 13%
OVCAR-5
  inhibition of growth at 10 µM: 12%
HCT-116
  inhibition of growth at 10 µM: 24%
UO-31
  inhibition of growth at 10 µM: 18%
NCI-H226
  inhibition of growth at 10 µM: 33%
SNB-19
  inhibition of growth at 10 µM: 27%
Hs-578T
  inhibition of growth at 10 µM: 27%
CAKI-1
  inhibition of growth at 10 µM: 18%
SNB-75
  inhibition of growth at 10 µM: 46%
SF-539
  inhibition of growth at 10 µM: 25%
CCRF-CEM
  inhibition of growth at 10 µM: 19%
NCI-H460
  inhibition of growth at 10 µM: 20%
PC-3
  inhibition of growth at 10 µM: 21%

## CCN1C(=O)/C(=N\Nc2ccc(S(N)(=O)=O)cc2)c2cc(Cl)ccc21
Carbonic anhydrase 9 [3]
  Ki: 8.4 nM

## CCCN1C(=O)/C(=N\Nc2ccc(S(N)(=O)=O)cc2)c2cc(Br)ccc21
HCT-15
  inhibition of growth at 10 µM: 12%
MDA-MB-468
  inhibition of growth at 10 µM: 14%
UACC-62
  inhibition of growth at 10 µM: 30%
MCF7
  inhibition of growth at 10 µM: 20%
T47D
  inhibition of growth at 10 µM: 19%
ACHN
  inhibition of growth at 10 µM: 23%
MDA-MB-231
  inhibition of growth at 10 µM: 10%
A549
  inhibition of growth at 10 µM: 19%
RPMI-8226
  inhibition of growth at 10 µM: 26%
NCI-H522
  inhibition of growth at 10 µM: 31%
RXF 393
  inhibition of growth at 10 µM: 23%
TK-10
  inhibition of growth at 10 µM: 10%
OVCAR-8
  inhibition of growth at 10 µM: 24%
NCI/ADR-RES
  inhibition of growth at 10 µM: 16%
MOLT-4
  inhibition of growth at 10 µM: 12%
Carbonic anhydrase 9 [3]
  Ki: 55.8 nM
OVCAR-5
  inhibition of growth at 10 µM: 11%
BT-549
  inhibition of growth at 10 µM: 10%
HCT-116
  inhibition of growth at 10 µM: 30%
UO-31
  inhibition of growth at 10 µM: 18%
NCI-H226
  inhibition of growth at 10 µM: 18%
K562
  inhibition of growth at 10 µM: 21%
EKVX
  inhibition of growth at 10 µM: 11%
SNB-75
  inhibition of growth at 10 µM: 27%
SF-539
  inhibition of growth at 10 µM: 13%
CCRF-CEM
  inhibition of growth at 10 µM: 14%
NCI-H460
  inhibition of growth at 10 µM: 22%
PC-3
  inhibition of growth at 10 µM: 24%
HOP-62
  inhibition of growth at 10 µM: 13%

## CCCN1C(=O)/C(=N\Nc2ccc(S(N)(=O)=O)cc2)c2ccccc21
Carbonic anhydrase 9 [3]
  Ki: 28.6 nM

## NS(=O)(=O)c1ccc(N/N=C2\C(=O)Nc3ccc(Br)cc32)cc1
Carbonic anhydrase 12
  Ki: 65.9 nM
Carbonic anhydrase 1
  Ki: 3710 nM
Carbonic anhydrase 9 [3]
  Ki: 24.8 nM
Carbonic anhydrase 2
  Ki: 95.6 nM

## NS(=O)(=O)c1ccc(N/N=C2\C(=O)Nc3ccccc32)cc1
Carbonic anhydrase 12
  Ki: 30.1 nM
Carbonic anhydrase 1
  Ki: 467 nM
Carbonic anhydrase 9 [3]
  Ki: 15.5 nM
Carbonic anhydrase 2
  Ki: 63.3 nM
